Tested on: FVIII deficient plasma
Assay: aPTT based one stage clotting assay in FVIII deficient plasma
Format: biochemical, human
How it was run: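 Test samples preincubated 4 min with FVIII-deficient plasma and aPTT reagent (DAPTTIN or Pathromtin SL), optionally with 50 ng activated FIX; clotting started with 25 mM CaCl2. Read-out is clotting time from start to clot formation, set against FVIII, buffer or scrambled-peptide controls.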

RRREGGGYYVNWYFDRRR [A1/3]
reduction in the clotting time (Pathromtin SL, in the absence of FIXa): no reduction of the clotting time was detectable
reduction in the clotting time (Pathromtin SL, in the presence of FIXa): dose dependent reduction in the clotting time
average clotting time (Table 3A Exp. 1, DAPTTIN, 2.5 μM, 2.2 nM FIXa): 91 s
clotting time (Table 3A Exp. 1, DAPTTIN, 2.5 μM, 2.2 nM FIXa, duplicate 1): 91.1 s
clotting time (Table 3A Exp. 1, DAPTTIN, 2.5 μM, 2.2 nM FIXa, duplicate 2): 91 s
average clotting time (Table 3A Exp. 1, DAPTTIN, 2.5 μM, w/o FIXa): 105 s
clotting time (Table 3A Exp. 1, DAPTTIN, 2.5 μM, w/o FIXa, duplicate 1): 105.2 s
clotting time (Table 3A Exp. 1, DAPTTIN, 2.5 μM, w/o FIXa, duplicate 2): 104.8 s
average clotting time (Table 3A Exp. 1, DAPTTIN, 7.5 μM, 2.2 nM FIXa): 73 s
clotting time (Table 3A Exp. 1, DAPTTIN, 7.5 μM, 2.2 nM FIXa, duplicate 1): 73.1 s
clotting time (Table 3A Exp. 1, DAPTTIN, 7.5 μM, 2.2 nM FIXa, duplicate 2): 72.7 s
average clotting time (Table 3A Exp. 1, DAPTTIN, 7.5 μM, w/o FIXa): 98 s
clotting time (Table 3A Exp. 1, DAPTTIN, 7.5 μM, w/o FIXa, duplicate 1): 97.8 s
clotting time (Table 3A Exp. 1, DAPTTIN, 7.5 μM, w/o FIXa, duplicate 2): 97.9 s
average clotting time (Table 3A Exp. 1, DAPTTIN, 12.5 μM, 2.2 nM FIXa): 60 s
clotting time (Table 3A Exp. 1, DAPTTIN, 12.5 μM, 2.2 nM FIXa, duplicate 1): 60.2 s
clotting time (Table 3A Exp. 1, DAPTTIN, 12.5 μM, 2.2 nM FIXa, duplicate 2): 58.9 s
average clotting time (Table 3A Exp. 1, DAPTTIN, 12.5 μM, w/o FIXa): 80 s
clotting time (Table 3A Exp. 1, DAPTTIN, 12.5 μM, w/o FIXa, duplicate 1): 80.2 s
clotting time (Table 3A Exp. 1, DAPTTIN, 12.5 μM, w/o FIXa, duplicate 2): 80.6 s
average clotting time (Table 3A Exp. 1, DAPTTIN, 15 μM, 2.2 nM FIXa): 60 s
clotting time (Table 3A Exp. 1, DAPTTIN, 15 μM, 2.2 nM FIXa, duplicate 1): 59.3 s
clotting time (Table 3A Exp. 1, DAPTTIN, 15 μM, 2.2 nM FIXa, duplicate 2): 59.9 s
average clotting time (Table 3A Exp. 1, DAPTTIN, 15 μM, w/o FIXa): 78 s
clotting time (Table 3A Exp. 1, DAPTTIN, 15 μM, w/o FIXa, duplicate 1): 78.2 s
clotting time (Table 3A Exp. 1, DAPTTIN, 15 μM, w/o FIXa, duplicate 2): 77.1 s
average clotting time (Table 3A Exp. 2, DAPTTIN, 1.25 μM, 2.2 nM FIXa): 91 s
clotting time (Table 3A Exp. 2, DAPTTIN, 1.25 μM, 2.2 nM FIXa, duplicate 1): 90.7 s
clotting time (Table 3A Exp. 2, DAPTTIN, 1.25 μM, 2.2 nM FIXa, duplicate 2): 90.8 s
average clotting time (Table 3A Exp. 2, DAPTTIN, 1.25 μM, w/o FIXa): 109 s
clotting time (Table 3A Exp. 2, DAPTTIN, 1.25 μM, w/o FIXa, duplicate 1): 108.7 s
clotting time (Table 3A Exp. 2, DAPTTIN, 1.25 μM, w/o FIXa, duplicate 2): 109.3 s
average clotting time (Table 3A Exp. 2, DAPTTIN, 2.5 μM, 2.2 nM FIXa): 88 s
clotting time (Table 3A Exp. 2, DAPTTIN, 2.5 μM, 2.2 nM FIXa, duplicate 1): 88 s
clotting time (Table 3A Exp. 2, DAPTTIN, 2.5 μM, 2.2 nM FIXa, duplicate 2): 88.8 s
average clotting time (Table 3A Exp. 2, DAPTTIN, 2.5 μM, w/o FIXa): 110 s
clotting time (Table 3A Exp. 2, DAPTTIN, 2.5 μM, w/o FIXa, duplicate 1): 110.1 s
clotting time (Table 3A Exp. 2, DAPTTIN, 2.5 μM, w/o FIXa, duplicate 2): 108.9 s
average clotting time (Table 3A Exp. 2, DAPTTIN, 5 μM, 2.2 nM FIXa): 77 s
clotting time (Table 3A Exp. 2, DAPTTIN, 5 μM, 2.2 nM FIXa, duplicate 1): 77 s
clotting time (Table 3A Exp. 2, DAPTTIN, 5 μM, 2.2 nM FIXa, duplicate 2): 76 s
average clotting time (Table 3A Exp. 2, DAPTTIN, 5 μM, w/o FIXa): 104 s
clotting time (Table 3A Exp. 2, DAPTTIN, 5 μM, w/o FIXa, duplicate 1): 103.4 s
clotting time (Table 3A Exp. 2, DAPTTIN, 5 μM, w/o FIXa, duplicate 2): 104.8 s
average clotting time (Table 3A Exp. 2, DAPTTIN, 7.5 μM, 2.2 nM FIXa): 73 s
clotting time (Table 3A Exp. 2, DAPTTIN, 7.5 μM, 2.2 nM FIXa, duplicate 1): 71.6 s
clotting time (Table 3A Exp. 2, DAPTTIN, 7.5 μM, 2.2 nM FIXa, duplicate 2): 73.9 s
average clotting time (Table 3A Exp. 2, DAPTTIN, 7.5 μM, w/o FIXa): 100 s
clotting time (Table 3A Exp. 2, DAPTTIN, 7.5 μM, w/o FIXa, duplicate 1): 100.1 s
clotting time (Table 3A Exp. 2, DAPTTIN, 7.5 μM, w/o FIXa, duplicate 2): 100.5 s
average clotting time (Table 3A Exp. 2, DAPTTIN, 10 μM, 2.2 nM FIXa): 63 s
clotting time (Table 3A Exp. 2, DAPTTIN, 10 μM, 2.2 nM FIXa, duplicate 1): 63.1 s
clotting time (Table 3A Exp. 2, DAPTTIN, 10 μM, 2.2 nM FIXa, duplicate 2): 62.5 s
average clotting time (Table 3A Exp. 2, DAPTTIN, 10 μM, w/o FIXa): 79 s
clotting time (Table 3A Exp. 2, DAPTTIN, 10 μM, w/o FIXa, duplicate 1): 79.1 s
clotting time (Table 3A Exp. 2, DAPTTIN, 10 μM, w/o FIXa, duplicate 2): 78.5 s
average clotting time (Table 3A Exp. 2, DAPTTIN, 12.5 μM, 2.2 nM FIXa): 57 s
clotting time (Table 3A Exp. 2, DAPTTIN, 12.5 μM, 2.2 nM FIXa, duplicate 1): 56.7 s
clotting time (Table 3A Exp. 2, DAPTTIN, 12.5 μM, 2.2 nM FIXa, duplicate 2): 56.7 s
average clotting time (Table 3A Exp. 2, DAPTTIN, 12.5 μM, w/o FIXa): 85 s
clotting time (Table 3A Exp. 2, DAPTTIN, 12.5 μM, w/o FIXa, duplicate 1): 83.6 s
clotting time (Table 3A Exp. 2, DAPTTIN, 12.5 μM, w/o FIXa, duplicate 2): 85.5 s
average clotting time (Table 3B, Pathromtin SL, 1 μM, 2.2 nM FIXa): 105 s
clotting time (Table 3B, Pathromtin SL, 1 μM, 2.2 nM FIXa, duplicate 1): 103.7 s
clotting time (Table 3B, Pathromtin SL, 1 μM, 2.2 nM FIXa, duplicate 2): 105.9 s
average clotting time (Table 3B, Pathromtin SL, 1 μM, w/o FIXa): 139 s
clotting time (Table 3B, Pathromtin SL, 1 μM, w/o FIXa, duplicate 1): 138.3 s
clotting time (Table 3B, Pathromtin SL, 1 μM, w/o FIXa, duplicate 2): 138.8 s
average clotting time (Table 3B, Pathromtin SL, 5 μM, 2.2 nM FIXa): 88 s
clotting time (Table 3B, Pathromtin SL, 5 μM, 2.2 nM FIXa, duplicate 1): 86.6 s
clotting time (Table 3B, Pathromtin SL, 5 μM, 2.2 nM FIXa, duplicate 2): 90.2 s
average clotting time (Table 3B, Pathromtin SL, 5 μM, w/o FIXa): 154 s
clotting time (Table 3B, Pathromtin SL, 5 μM, w/o FIXa, duplicate 1): 152.6 s
clotting time (Table 3B, Pathromtin SL, 5 μM, w/o FIXa, duplicate 2): 155.6 s
average clotting time (Table 3B, Pathromtin SL, 10 μM, 2.2 nM FIXa): 78 s
clotting time (Table 3B, Pathromtin SL, 10 μM, 2.2 nM FIXa, duplicate 1): 76.2 s
clotting time (Table 3B, Pathromtin SL, 10 μM, 2.2 nM FIXa, duplicate 2): 79.8 s
average clotting time (Table 3B, Pathromtin SL, 10 μM, w/o FIXa): 135 s
clotting time (Table 3B, Pathromtin SL, 10 μM, w/o FIXa, duplicate 1): 135.7 s
clotting time (Table 3B, Pathromtin SL, 10 μM, w/o FIXa, duplicate 2): 134.6 s
average clotting time (Table 3B, Pathromtin SL, 15 μM, 2.2 nM FIXa): 75 s
clotting time (Table 3B, Pathromtin SL, 15 μM, 2.2 nM FIXa, duplicate 1): 75.4 s
clotting time (Table 3B, Pathromtin SL, 15 μM, 2.2 nM FIXa, duplicate 2): 75.2 s
average clotting time (Table 3B, Pathromtin SL, 15 μM, w/o FIXa): 151 s
clotting time (Table 3B, Pathromtin SL, 15 μM, w/o FIXa, duplicate 1): 152.8 s
clotting time (Table 3B, Pathromtin SL, 15 μM, w/o FIXa, duplicate 2): 149.3 s
average clotting time (Table 4, 1.25 μM, 2.2 nM FIXa): 95 s
clotting time (Table 4, 1.25 μM, 2.2 nM FIXa, duplicate 1): 94.4 s
clotting time (Table 4, 1.25 μM, 2.2 nM FIXa, duplicate 2): 95 s
average clotting time (Table 4, 1.25 μM, w/o FIXa): 107 s
clotting time (Table 4, 1.25 μM, w/o FIXa, duplicate 1): 106.7 s
clotting time (Table 4, 1.25 μM, w/o FIXa, duplicate 2): 107 s
average clotting time (Table 4, 2.5 μM, 2.2 nM FIXa): 93 s
clotting time (Table 4, 2.5 μM, 2.2 nM FIXa, duplicate 1): 93.6 s
clotting time (Table 4, 2.5 μM, 2.2 nM FIXa, duplicate 2): 93.3 s
average clotting time (Table 4, 2.5 μM, w/o FIXa): 108 s
clotting time (Table 4, 2.5 μM, w/o FIXa, duplicate 1): 107.9 s
clotting time (Table 4, 2.5 μM, w/o FIXa, duplicate 2): 107.6 s
average clotting time (Table 4, 5 μM, 2.2 nM FIXa): 89 s
clotting time (Table 4, 5 μM, 2.2 nM FIXa, duplicate 1): 89.7 s
clotting time (Table 4, 5 μM, 2.2 nM FIXa, duplicate 2): 88.3 s
average clotting time (Table 4, 5 μM, w/o FIXa): 108 s
clotting time (Table 4, 5 μM, w/o FIXa, duplicate 1): 108.4 s
clotting time (Table 4, 5 μM, w/o FIXa, duplicate 2): 107.7 s
average clotting time (Table 4, 7.5 μM, 2.2 nM FIXa): 81 s
clotting time (Table 4, 7.5 μM, 2.2 nM FIXa, duplicate 1): 80.7 s
clotting time (Table 4, 7.5 μM, 2.2 nM FIXa, duplicate 2): 80.5 s
average clotting time (Table 4, 7.5 μM, w/o FIXa): 105 s
clotting time (Table 4, 7.5 μM, w/o FIXa, duplicate 1): 105.2 s
clotting time (Table 4, 7.5 μM, w/o FIXa, duplicate 2): 105.2 s
average clotting time (Table 4, 10 μM, 2.2 nM FIXa): 73 s
clotting time (Table 4, 10 μM, 2.2 nM FIXa, duplicate 1): 72 s
clotting time (Table 4, 10 μM, 2.2 nM FIXa, duplicate 2): 73.2 s
average clotting time (Table 4, 10 μM, w/o FIXa): 104 s
clotting time (Table 4, 10 μM, w/o FIXa, duplicate 1): 104.4 s
clotting time (Table 4, 10 μM, w/o FIXa, duplicate 2): 104.5 s
average clotting time (Table 4, 12.5 μM, 2.2 nM FIXa): 67 s
clotting time (Table 4, 12.5 μM, 2.2 nM FIXa, duplicate 1): 65 s
clotting time (Table 4, 12.5 μM, 2.2 nM FIXa, duplicate 2): 68 s
average clotting time (Table 4, 12.5 μM, w/o FIXa): 100 s
clotting time (Table 4, 12.5 μM, w/o FIXa, duplicate 1): 99.4 s
clotting time (Table 4, 12.5 μM, w/o FIXa, duplicate 2): 100.5 s
average clotting time (Table 4, 15 μM, 2.2 nM FIXa): 56 s
clotting time (Table 4, 15 μM, 2.2 nM FIXa, duplicate 1): 56.1 s
clotting time (Table 4, 15 μM, 2.2 nM FIXa, duplicate 2): 55.5 s
average clotting time (Table 4, 15 μM, w/o FIXa): 78 s
clotting time (Table 4, 15 μM, w/o FIXa, duplicate 1): 77.8 s
clotting time (Table 4, 15 μM, w/o FIXa, duplicate 2): 78 s

From patent US7279161B2, “Factor IX/factor IXa activating antibodies and antibody derivatives” (Baxter Aktiengesellschaft, priority 1999, dated 2007)
